Laboratory results taken from ChEMBL document CHEMBL5034041, “Discovery of Meso-(meta-Pyridinium) BODIPY Photosensitizers: In Vitro and In Vivo Evaluations for Antimicrobial Photodynamic Therapy” (J Med Chem, 2021).
Active and inactive are the calls of the source. The calls are words filed in the database; no cut-off is given here.

Columns and labels:
[1] = system: Candida albicans; experiment: Photodynamic antimicrobial activity against Candida albicans ATCC14053 assessed as loss of microbial viability at 2 uM preincubated for 15 mins followed by light irradiation at 81 J/cm^2 dose for 15 mins and measured after 36 hrs; type: functional; conditions: time 36.5 hrs
[2] = system: Escherichia coli; experiment: Photodynamic antimicrobial activity against Escherichia coli ATCC25922 assessed as decrease in viable cell log count at 2.5 uM preincubated for 15 mins followed by light irradiation at 81 J/cm^2 dose for 15 mins and measured after 36 hrs; type: functional, ATCC 25922; conditions: time 36.5 hrs
[3] = system: Staphylococcus aureus; experiment: Photodynamic antimicrobial activity against Staphylococcus aureus ATCC 29213 preincubated for 15 mins followed by irradiation with 90 mW/cm^2 light for 15 mins and measured after 24 hrs; type: functional; conditions: ATCC 29213, light or radiation study, time 24.5 hrs
[4] = Drug uptake in Escherichia coli ATCC 25922 at 10 uM incubated at 37 degree for 15 mins by UV-vis absorption spectra analysis relative to control; type: ADME; conditions: 0.25 h
[5] = system: Candida albicans; experiment: Drug uptake in Candida albicans ATCC 14053 at 10 uM incubated at 37 degree for 15 mins by UV-vis absorption spectra analysis relative to control; type: ADME, organism-based; conditions: 0.25 h
[6] = system: Escherichia coli; experiment: Photodynamic antimicrobial activity against Escherichia coli ATCC25922 assessed as loss of microbial viability at 2 uM preincubated for 15 mins followed by light irradiation at 81 J/cm^2 dose for 15 mins and measured after 36 hrs; type: functional, ATCC 25922; conditions: time 36.5 hrs
[7] = Octanol-water partition coefficient, logP of the compound at 2 uM after 20 hrs by HPLC analysis; type: physicochemical
[8] = system: Staphylococcus aureus; experiment: Photodynamic antimicrobial activity against Staphylococcus aureus […] assessed as loss of microbial viability at 2 uM preincubated for 15 mins followed by light irradiation at 81 J/cm^2 dose for 15 mins and measured after 36 hrs; type: functional; conditions: time 36.5 hrs
[9] = system: Escherichia coli; experiment: Photodynamic antimicrobial activity against Escherichia coli ATCC25922 assessed as decrease in viable cell log count at 1.25 uM preincubated for 15 mins followed by light irradiation at 81 J/cm^2 dose for 15 mins and measured after 36 hrs; type: functional, ATCC 25922; conditions: time 36.5 hrs
[10] = system: Escherichia coli; experiment: Photodynamic antimicrobial activity against Escherichia coli ATCC 25922 preincubated for 15 mins followed by irradiation with 90 mW/cm^2 light for 15 mins and measured after 24 hrs; type: functional; conditions: ATCC 25922, light or radiation study, time 24.5 hrs
[11] = system: Staphylococcus aureus; experiment: Photodynamic antimicrobial activity against methicillin resistant Staphylococcus aureus ATCC43300 preincubated for 15 mins followed by irradiation with 90 mW/cm^2 light for 15 mins and measured after 24 hrs; type: functional; conditions: ATCC43300, light or radiation study, time 24.5 hrs
[12] = system: Candida albicans; experiment: Photodynamic antimicrobial activity against Candida albicans ATCC 14053 preincubated for 15 mins followed by irradiation with 90 mW/cm^2 light for 15 mins and measured after 24 hrs; type: functional; conditions: ATCC 14053, light or radiation study, time 24.5 hrs
[13] = system: Escherichia coli; experiment: Photodynamic antimicrobial activity against Escherichia coli ATCC25922 assessed as decrease in viable cell log count at 5 uM preincubated for 15 mins followed by light irradiation at 81 J/cm^2 dose for 15 mins and measured after 36 hrs; type: functional, ATCC 25922; conditions: time 36.5 hrs
[14] = Drug uptake in Staphylococcus aureus ATCC 29213 at 10 uM incubated at 37 degree for 15 mins by UV-vis absorption spectra analysis relative to control; type: ADME; conditions: 0.25 h
[15] = system: Staphylococcus aureus; experiment: Photodynamic antimicrobial activity against Staphylococcus aureus […] assessed as decrease in viable cell log count at 5 uM preincubated for 15 mins followed by light irradiation at 81 J/cm^2 dose for 15 mins and measured after 36 hrs; type: functional; conditions: time 36.5 hrs
[16] = system: Candida albicans; experiment: Photodynamic antimicrobial activity against Candida albicans ATCC14053 assessed as reduction in viable cells log count at 1 uM preincubated in dark for 15 mins followed by light irradiation at 81 J/cm^2 dose for 15 mins and measured after 36 hrs; type: functional; conditions: time 36.5 hrs
[17] = system: Escherichia coli; experiment: Photodynamic antimicrobial activity against Escherichia coli ATCC25922 assessed as bacterial clearance ratio at 1.25 uM preincubated for 15 mins in dark followed by irradiation with 27 J/cm^2 light for 5 mins and measured after 36 hrs; type: functional, ATCC 25922; conditions: time 2180 min, 36.33 h
[18] = system: Cell membrane; experiment: Induction of cell membrane disruption in Staphylococcus aureus ATCC29213 at 2.5 uM preincubated for 15 mins followed by irradiated with 81 J/cm^2 light for 15 mins by DAPI staining based confocal laser scanning microscopic analysis; conditions: time 30.0 min
[19] = system: Candida albicans; experiment: Photodynamic antimicrobial activity against Candida albicans ATCC14053 assessed as reduction in viable cells log count at 0.5 uM preincubated in dark for 15 mins followed by light irradiation at 81 J/cm^2 dose for 15 mins and measured after 36 hrs; type: functional; conditions: time 36.5 hrs
[20] = system: Cell membrane; experiment: Induction of cell membrane disruption in Escherichia coli ATCC25922 at 5 uM preincubated for 15 mins followed by irradiated with 81 J/cm^2 light for 15 mins by DAPI staining based confocal laser scanning microscopic analysis; conditions: Escherichia coli ATCC 25922, time 30.0 min
[21] = system: Escherichia coli; experiment: Photodynamic antimicrobial activity against Escherichia coli ATCC25922 assessed as bacterial clearance ratio at 1.25 uM preincubated for 15 mins in dark followed by irradiation with 81 J/cm^2 light for 20 to 25 mins and measured after 36 hrs; type: functional, ATCC 25922; conditions: time 2195-2200 min
[22] = system: Staphylococcus aureus; experiment: In vivo antibacterial activity against Staphylococcus aureus ATCC29213 infected in Swiss albino mouse assessed as reduction in neutophils count at 10 mg treated on day 2 post infection and followed by irradiation with 81 J/cm^2 light for 15 mins and measured every 3 days upto 8 days by H and E staining analysis; type: functional, organism-based; conditions: time 8.0 day
[23] = system: Staphylococcus aureus; experiment: Photodynamic antimicrobial activity against methicillin resistant Staphylococcus aureus ATCC43300 assessed as log count reduction in viable cells at 0.625 uM preincubated in dark for 15 mins followed by light irradiation at 81 J/cm^2 dose for 15 mins and measured after 36 hrs; type: functional; conditions: time 36.5 hrs
[24] = system: HaCaT; experiment: Dark toxicity against human HaCat cells assessed as reduction in cell survival upto 20 uM incubated under dark condition for 15 mins by CCK-8 assay; type: cell-based; conditions: 0.25 h
[25] = system: Escherichia coli; experiment: Induction of morphological changes in Escherichia coli ATCC 25922 at 10 uM preincubated for 15 mins followed by light irradiation at 90 mW/cm2 for 15 mins by SEM analysis; type: functional, organism-based; conditions: time 30.0 min
[26] = system: Cell membrane; experiment: Induction of cell membrane disruption in Candida albicans ATCC14053 at 2.5 uM preincubated for 15 mins followed by irradiated with 81 J/cm^2 light for 15 mins by DAPI staining based confocal laser scanning microscopic analysis; conditions: time 30.0 min
[27] = system: Staphylococcus aureus; experiment: Induction of morphological changes in Staphylococcus aureus ATCC 29213 at 10 uM preincubated for 15 mins followed by light irradiation at 90 mW/cm2 for 15 mins by SEM analysis; type: functional, organism-based; conditions: time 30.0 min
[28] = system: Candida albicans; experiment: Induction of morphological changes in Candida albicans ATCC 14053 at 10 uM preincubated for 15 mins followed by light irradiation at 90 mW/cm2 for 15 mins by SEM analysis; type: functional, organism-based; conditions: time 30.0 min
[29] = system: Escherichia coli; experiment: Photodynamic antimicrobial activity against Escherichia coli ATCC25922 assessed as bacterial clearance ratio at 1.25 uM preincubated for 15 mins in dark followed by irradiation with 54 J/cm^2 light for 10 mins and measured after 36 hrs; type: functional, ATCC 25922; conditions: time 2185 min, 36.42 h
[30] = system: Staphylococcus aureus; experiment: In vivo antibacterial activity against Staphylococcus aureus ATCC29213 infected in Swiss albino mouse assessed as wound healing at 10 mg treated on day 2 post infection and followed by irradiation with 81 J/cm^2 light for 15 mins and measured every 3 days upto 8 days; type: functional, organism-based; conditions: time 8.0 day
[31] = system: HaCaT; experiment: Cytotoxicity against human HaCat Cells assessed as reduction in cell survival preincubated for 15 mins followed by irradiated with light at 81 J/cm^2 for 15 mins and measured after 24 hrs by CCK-8 assay; type: cell-based; conditions: light or radiation study
[32] = system: Staphylococcus aureus; experiment: Photodynamic antimicrobial activity against methicillin resistant Staphylococcus aureus ATCC43300 assessed as log count reduction in viable cells at 1.25 uM incubated in dark for 15 mins followed by light irradiation at 81 J/cm^2 dose for 15 mins and measured after 36 hrs; type: functional; conditions: time 36.5 hrs
[33] = system: Candida albicans; experiment: Induction of ROS generation in Candida albicans ATCC14053 at 0.16 to 20 uM preincubated for 15 mins followed by irradiation with 81 J/cm^2 light for 15 mins by DCFH-DA staining-based fluorescence microscopy analysis; type: functional, organism-based; conditions: dose 0.16-20 µM, time 30.0 min
[34] = system: Staphylococcus aureus; experiment: Photodynamic antimicrobial activity against Staphylococcus aureus […] assessed as decrease in viable cell log count at 0.31 uM preincubated for 15 mins followed by light irradiation at 81 J/cm^2 dose for 15 mins and measured after 36 hrs; type: functional; conditions: time 36.5 hrs
[35] = system: Escherichia coli; experiment: Photodynamic antimicrobial activity against Escherichia coli ATCC25922 assessed as bacterial clearance ratio at 1.25 uM preincubated for 15 mins in dark followed by irradiation with 81 J/cm^2 light for 15 mins and measured after 36 hrs; type: functional, ATCC 25922; conditions: time 2190 min, 36.5 h
[36] = system: Staphylococcus aureus; experiment: Photodynamic antimicrobial activity against methicillin resistant Staphylococcus aureus ATCC43300 assessed as loss of microbial viability at 2 uM preincubated for 15 mins followed by light irradiation at 81 J/cm^2 dose for 15 mins and measured after 36 hrs; type: functional; conditions: time 36.5 hrs

## CC1=C(I)C(C)=[N+]2C1=C(c1cccc[n+]1C)c1c(C)c(I)c(C)n1[B-]2(F)F.[I-]
[1]
  Activity: 77%
[2]
  log(activity): 5.26
[3]
  MIC: 10 µM
[4]
  Drug uptake: 10%
[5]
  Drug uptake: 4%
[6]
  Activity: 99.3%
[7]
  logP at 20 h, 2 µM: 0.17
[8]
  Activity: 99.9%
[9]
  log(activity): 2.53
[10]
  MIC: 1.25 µM
[11]
  MIC: 1.25 µM
[12]
  MIC: 2.5 µM
[13]
  log(activity): 6.62
[14]
  Drug uptake: 4%

## CCCCCCC[n+]1cccc(C2=C3C(C)=C(I)C(C)=[N+]3[B-](F)(F)n3c(C)c(I)c(C)c32)c1.[I-]
[1]
  Activity: Active
[3]
  MIC: 2.5 µM
[4]
  Drug uptake: 61%
[5]
  Drug uptake: 27%
[7]
  logP at 20 h, 2 µM: > 4
[8]
  Activity: >99.9999%
[10]
  MIC: 0.63 µM
[11]
  MIC: 0.63 µM
[12]
  MIC: 1.25 µM
[14]
  Drug uptake: 72%

## CC1=C(I)C(C)=[N+]2C1=C(c1ccc[n+](Cc3ccccc3)c1)c1c(C)c(I)c(C)n1[B-]2(F)F.[Br-]
[1]
  Activity: Active
[3]
  MIC: 2.5 µM
[4]
  Drug uptake: 68%
[5]
  Drug uptake: 25%
[7]
  logP at 20 h, 2 µM: > 4
[8]
  Activity: >99.9999%
[10]
  MIC: 0.63 µM
[11]
  MIC: 0.63 µM
[12]
  MIC: 1.25 µM
[14]
  Drug uptake: 80%

## CC1=C(I)C(C)=[N+]2C1=C(c1ccncc1)c1c(C)c(I)c(C)n1[B-]2(F)F
[7]
  logP at 20 h, 2 µM: > 4

## CC1=C(I)C(C)=[N+]2C1=C(c1cccnc1)c1c(C)c(I)c(C)n1[B-]2(F)F
[7]
  logP at 20 h, 2 µM: > 4

## CC1=C(I)C(C)=[N+]2C1=C(c1ccccn1)c1c(C)c(I)c(C)n1[B-]2(F)F
[7]
  logP at 20 h, 2 µM: > 4

## CC1=C(I)C(C)=[N+]2C1=C(c1ccc[n+](C)c1)c1c(C)c(I)c(C)n1[B-]2(F)F.[I-]
[15]
  log(activity): 7.05
[1]
  Activity: >99.9%
[16]
  Activity: 99.99%
[3]
  MIC: 1.25 µM
[17]
  Activity: 99.23%
[18]
  Activity: Active
[4]
  Drug uptake: 47%
[19]
  Activity: 98%
[5]
  Drug uptake: 9%
[20]
  Activity: Active
[21]
  Activity: >99.9998%
[22]
  Activity: Active
[23]
  log(activity): 3.8
[6]
  Activity: 99.9999%
[7]
  logP at 20 h, 2 µM: 1.44
[24]
  Activity: Non-Toxic
[25]
  Activity: inactive
[26]
  Activity: Active
[27]
  Activity: inactive
[8]
  Activity: >99.9999%
[28]
  Activity: inactive
[29]
  Activity: 99.97%
[10]
  MIC: 0.63 µM
[11]
  MIC: 0.63 µM
[12]
  MIC: 0.63 µM
[30]
  Activity: Active
[31]
  IC50: 3.86 µM
[14]
  Drug uptake: 56%
[32]
  log(activity): >6.7
[33]
  Activity: Active
[34]
  log(activity): 3.59
[35]
  Activity: >99.9998%

## CC1=C(I)C(C)=[N+]2C1=C(c1cc[n+](C)cc1)c1c(C)c(I)c(C)n1[B-]2(F)F.[I-]
[1]
  Activity: 77%
[3]
  MIC: 2.5 µM
[4]
  Drug uptake: 53%
[36]
  Activity: Active
[5]
  Drug uptake: 23%
[6]
  Activity: 99.4%
[7]
  logP at 20 h, 2 µM: 2.14
[8]
  Activity: Active
[10]
  MIC: 1.25 µM
[11]
  MIC: 1.25 µM
[12]
  MIC: 2.5 µM
[14]
  Drug uptake: 65%
